# Laboratory results: PubChem BioAssay (NCI)
#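 Cells were grown in 96-well plates and exposed to each compound for 48 hours at five concentrations; endpoints were interpolated linearly between bracketing concentrations, or set to the highest concentration if not reached. TGI: concentration producing complete growth inhibition.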
# Legend:
# Experiment in all cases: NCI-60 cell line screen, 48 h
# 786-0 renal = tested on: 786-0 renal
# A498 renal = tested on: A498 renal
# A549 NSCLC = tested on: A549 NSCLC
# ACHN renal = tested on: ACHN renal
# BT-549 breast = tested on: BT-549 breast
# CAKI-1 renal = tested on: CAKI-1 renal
# CCRF-CEM leukemia = tested on: CCRF-CEM leukemia
# COLO 205 colon = tested on: COLO 205 colon
# DU-145 prostate = tested on: DU-145 prostate
# EKVX NSCLC = tested on: EKVX NSCLC
# HCC-2998 colon = tested on: HCC-2998 colon
# HCT-116 colon = tested on: HCT-116 colon
# HCT-15 colon = tested on: HCT-15 colon
# HL-60(TB) leukemia = tested on: HL-60(TB) leukemia
# HOP-92 NSCLC = tested on: HOP-92 NSCLC
# HS 578T breast = tested on: HS 578T breast
# HT29 colon = tested on: HT29 colon
# IGROV1 ovarian = tested on: IGROV1 ovarian
# K-562 leukemia = tested on: K-562 leukemia
# KM12 colon = tested on: KM12 colon
# LOX IMVI melanoma = tested on: LOX IMVI melanoma
# M14 melanoma = tested on: M14 melanoma
# MALME-3M melanoma = tested on: MALME-3M melanoma
# MCF7 breast = tested on: MCF7 breast
# MDA-MB-231 breast = tested on: MDA-MB-231 breast
# MDA-MB-435 = tested on: MDA-MB-435
# MDA-N = tested on: MDA-N
# MOLT-4 leukemia = tested on: MOLT-4 leukemia
# NCI-H226 lung = tested on: NCI-H226 lung
# NCI-H23 lung = tested on: NCI-H23 lung
# NCI-H460 lung = tested on: NCI-H460 lung
# NCI-H522 lung = tested on: NCI-H522 lung
# NCI/ADR-RES ovarian = tested on: NCI/ADR-RES ovarian
# OVCAR-3 ovarian = tested on: OVCAR-3 ovarian
# OVCAR-4 ovarian = tested on: OVCAR-4 ovarian
# OVCAR-5 ovarian = tested on: OVCAR-5 ovarian
# OVCAR-8 ovarian = tested on: OVCAR-8 ovarian
# PC-3 prostate = tested on: PC-3 prostate
# RPMI-8226 leukemia = tested on: RPMI-8226 leukemia
# SF-268 CNS = tested on: SF-268 CNS
# SF-295 CNS = tested on: SF-295 CNS
# SF-539 CNS = tested on: SF-539 CNS
# SK-MEL-2 melanoma = tested on: SK-MEL-2 melanoma
# SK-MEL-28 melanoma = tested on: SK-MEL-28 melanoma
# SK-MEL-5 melanoma = tested on: SK-MEL-5 melanoma
# SK-OV-3 ovarian = tested on: SK-OV-3 ovarian
# SN12C renal = tested on: SN12C renal
# SNB-19 CNS = tested on: SNB-19 CNS
# SNB-75 CNS = tested on: SNB-75 CNS
# SW-620 colon = tested on: SW-620 colon
# T-47D breast = tested on: T-47D breast
# TK-10 renal = tested on: TK-10 renal
# U251 CNS = tested on: U251 CNS
# UACC-257 melanoma = tested on: UACC-257 melanoma
# UACC-62 melanoma = tested on: UACC-62 melanoma
# UO-31 renal = tested on: UO-31 renal
# HOP-62 NSCLC = tested on: HOP-62 NSCLC
# SR leukemia = tested on: SR leukemia
smiles,measurement,setting,value
COC(=O)C1=COC2OC3C(C(C)O)C(=O)OC34C=CC1C24 (centres undefined),TGI,786-0 renal,> 100 µM
same,TGI,A498 renal,> 100 µM
same,TGI,A549 NSCLC,> 100 µM
same,TGI,ACHN renal,> 100 µM
same,TGI,BT-549 breast,> 100 µM
same,TGI,CAKI-1 renal,> 100 µM
same,TGI,CCRF-CEM leukemia,55.4 µM
same,TGI,COLO 205 colon,> 100 µM
same,TGI,DU-145 prostate,> 100 µM
same,TGI,EKVX NSCLC,> 100 µM
same,TGI,HCC-2998 colon,> 100 µM
same,TGI,HCT-116 colon,> 100 µM
same,TGI,HCT-15 colon,> 100 µM
same,TGI,HL-60(TB) leukemia,39.7 µM
same,TGI,HOP-92 NSCLC,> 100 µM
same,TGI,HS 578T breast,> 100 µM
same,TGI,HT29 colon,> 100 µM
same,TGI,IGROV1 ovarian,> 100 µM
same,TGI,K-562 leukemia,> 100 µM
same,TGI,KM12 colon,> 100 µM
same,TGI,LOX IMVI melanoma,> 100 µM
same,TGI,M14 melanoma,> 100 µM
same,TGI,MALME-3M melanoma,> 100 µM
same,TGI,MCF7 breast,> 100 µM
same,TGI,MDA-MB-231 breast,> 100 µM
same,TGI,MDA-MB-435,> 100 µM
same,TGI,MDA-N,> 100 µM
same,TGI,MOLT-4 leukemia,> 100 µM
same,TGI,NCI-H226 lung,> 100 µM
same,TGI,NCI-H23 lung,> 100 µM
same,TGI,NCI-H460 lung,> 100 µM
same,TGI,NCI-H522 lung,30.5 µM
same,TGI,NCI/ADR-RES ovarian,69 µM
same,TGI,OVCAR-3 ovarian,> 100 µM
same,TGI,OVCAR-4 ovarian,> 100 µM
same,TGI,OVCAR-5 ovarian,> 100 µM
same,TGI,OVCAR-8 ovarian,47.2 µM
same,TGI,PC-3 prostate,> 100 µM
same,TGI,RPMI-8226 leukemia,90.8 µM
same,TGI,SF-268 CNS,> 100 µM
same,TGI,SF-295 CNS,> 100 µM
same,TGI,SF-539 CNS,> 100 µM
same,TGI,SK-MEL-2 melanoma,> 100 µM
same,TGI,SK-MEL-28 melanoma,> 100 µM
same,TGI,SK-MEL-5 melanoma,> 100 µM
same,TGI,SK-OV-3 ovarian,> 100 µM
same,TGI,SN12C renal,> 100 µM
same,TGI,SNB-19 CNS,> 100 µM
same,TGI,SNB-75 CNS,> 100 µM
same,TGI,SW-620 colon,> 100 µM
same,TGI,T-47D breast,> 100 µM
same,TGI,TK-10 renal,> 100 µM
same,TGI,U251 CNS,> 100 µM
same,TGI,UACC-257 melanoma,> 100 µM
same,TGI,UACC-62 melanoma,79.1 µM
same,TGI,UO-31 renal,> 100 µM
Nn1c(Nc2ccc(S(N)(=O)=O)cc2)nnc(/C=C/c2c(O)ccc3ccccc23)c1=O,TGI,786-0 renal,66.8 µM
same,TGI,A498 renal,73.6 µM
same,TGI,A549 NSCLC,92.4 µM
same,TGI,ACHN renal,> 100 µM
same,TGI,BT-549 breast,40.4 µM
same,TGI,CAKI-1 renal,49.6 µM
same,TGI,CCRF-CEM leukemia,18.8 µM
same,TGI,COLO 205 colon,88.1 µM
same,TGI,DU-145 prostate,91.2 µM
same,TGI,EKVX NSCLC,34.2 µM
same,TGI,HCC-2998 colon,51.9 µM
same,TGI,HCT-116 colon,34.1 µM
same,TGI,HCT-15 colon,30.4 µM
same,TGI,HL-60(TB) leukemia,28.6 µM
same,TGI,HOP-62 NSCLC,56.7 µM
same,TGI,HS 578T breast,> 100 µM
same,TGI,HT29 colon,42.6 µM
same,TGI,IGROV1 ovarian,0.942 µM
same,TGI,K-562 leukemia,34.5 µM
same,TGI,KM12 colon,52.2 µM
same,TGI,LOX IMVI melanoma,27.1 µM
same,TGI,M14 melanoma,69.8 µM
same,TGI,MALME-3M melanoma,49.7 µM
same,TGI,MCF7 breast,43 µM
same,TGI,MDA-MB-435,50.1 µM
same,TGI,MDA-N,42 µM
same,TGI,MOLT-4 leukemia,0.805 µM
same,TGI,NCI-H23 lung,22.4 µM
same,TGI,NCI-H460 lung,96.2 µM
same,TGI,NCI-H522 lung,33 µM
same,TGI,NCI/ADR-RES ovarian,54 µM
same,TGI,OVCAR-3 ovarian,42.8 µM
same,TGI,OVCAR-4 ovarian,47.5 µM
same,TGI,OVCAR-5 ovarian,56.1 µM
same,TGI,OVCAR-8 ovarian,22.6 µM
same,TGI,PC-3 prostate,> 100 µM
same,TGI,RPMI-8226 leukemia,26.7 µM
same,TGI,SF-268 CNS,> 100 µM
same,TGI,SF-295 CNS,96.8 µM
same,TGI,SF-539 CNS,> 100 µM
same,TGI,SK-MEL-2 melanoma,> 100 µM
same,TGI,SK-MEL-28 melanoma,53.5 µM
same,TGI,SK-MEL-5 melanoma,28.7 µM
same,TGI,SK-OV-3 ovarian,88.5 µM
same,TGI,SN12C renal,27.3 µM
same,TGI,SNB-19 CNS,> 100 µM
same,TGI,SR leukemia,25.1 µM
same,TGI,SW-620 colon,45.3 µM
same,TGI,T-47D breast,40.6 µM
same,TGI,U251 CNS,> 100 µM
same,TGI,UACC-257 melanoma,92.8 µM
same,TGI,UACC-62 melanoma,49.9 µM
same,TGI,UO-31 renal,57.3 µM
